Experimental data taken from ChEMBL document CHEMBL2406956, “Discovery and optimisation of 1-hydroxyimino-3,3-diphenylpropanes, a new class of orally active GPBAR1 (TGR5) agonists” (Bioorg Med Chem Lett, 2013).

Legend:
[1] = 1-octanol-aqueous buffer distribution coefficient, log D of the compound at 0.5 mM at pH 7.4 after 2 hrs by shake flask method; type: physicochemical
[2] = Cmax in C57Bl/6 DIO mouse at 30 mg/kg, po; type: ADME, organism-based; parameters: dose 30 mg/kg, route oral; settings: in vivo
[3] = Oral bioavailability in C57Bl/6 DIO mouse at 30 mg/kg; type: ADME, organism-based; settings: in vivo
[4] = Half life in C57Bl/6 DIO mouse at 1 mg/kg, iv; type: ADME, organism-based; parameters: dose 1 mg/kg, route intravenous; settings: in vivo
[5] = Volume of distribution at steady state in C57Bl/6 DIO mouse at 1 mg/kg, iv; type: ADME, organism-based; parameters: dose 1 mg/kg, route intravenous; settings: in vivo, read-out: Vdss
[6] = Clearance in C57Bl/6 DIO mouse at 1 mg/kg, iv; type: ADME, organism-based; parameters: dose 1 mg/kg, route intravenous; settings: in vivo
[7] = Oral bioavailability in C57Bl/6 DIO mouse at 49 mg/kg; type: ADME, organism-based; settings: in vivo
[8] = Cmax in C57Bl/6 DIO mouse at 22 mg/kg, po; type: ADME, organism-based; parameters: dose 22 mg/kg, route oral; settings: in vivo
[9] = Oral bioavailability in C57Bl/6 DIO mouse at 22 mg/kg; type: ADME, organism-based; settings: in vivo
[10] = Stability of the compound in aqueous solution assessed as recovery at pH 1 to 10 after 2 hrs; type: physicochemical; settings: read-out: Drug recovery
Plasma = experiment: Plasma concentration in C57Bl/6 DIO mouse at 50 to 100 mg/kg, po; type: ADME, organism-based; parameters: dose 50-100 mg/kg, route oral; settings: in vivo
[11] = Oral bioavailability in C57Bl/6 DIO mouse at 23 mg/kg; type: ADME, organism-based; settings: in vivo

Row | logD at 2 h, 500 µM [1] | half-life [4] [h] | Vd [5] [L/kg] | clearance [6] [mL/min/kg] | SMILES | further results
1 | 2.7 |  |  |  | Cc1cc(/C(C[C@@H](c2ccc(-c3ccc(C(=O)O)cc3)cc2)c2ccccc2C)=N/O)ccn1 | 
2 | 1.5 | 1.7 | 0.4 | 5 | Cc1cc(/C(C[C@H](c2ccc(N3CCC(C(=O)O)CC3)cc2)c2ccccc2C)=N/O)ccn1 | Cmax [2]: 41000 ng/mL; bioavailability [3]: 100%
3 | 1.6 |  |  |  | Cc1cc(/C(C[C@@H](c2ccc(N3CCC(C(=O)O)CC3)cc2)c2ccccc2C)=N/O)ccn1 | 
4 | 1.3 | 0.7 | 0.5 | 5 | Cc1ccccc1[C@H](C/C(=N\O)c1ccc(=O)n(C)c1)c1ccc(-c2ccc(C(=O)O)cc2)cc1 | bioavailability [7]: 67%
5 | 1.5 |  |  |  | Cc1ccccc1[C@@H](C/C(=N\O)c1ccc(=O)n(C)c1)c1ccc(-c2ccc(C(=O)O)cc2)cc1 | 
6 | 1.7 | 2.2 | 3.3 | 67 | Cc1ccccc1[C@H](C/C(=N\O)c1ccc(=O)n(C)c1)c1ccc(S(C)(=O)=O)cc1 | Cmax [8]: 870 ng/mL; bioavailability [9]: 29%
7 | 1.9 |  |  |  | Cc1ccccc1[C@@H](C/C(=N\O)c1ccc(=O)n(C)c1)c1ccc(S(C)(=O)=O)cc1 | 
8 | 3.4 |  |  |  | CN(C)c1ccc(C(C/C(=N\O)c2ccncc2)c2ccccc2)cc1 (stereo not given) | remaining at 2 h [10]: > 90%
9 | > 4 |  |  |  | Cc1cc(/C(CC(c2ccc(Br)cc2)c2ccccc2C)=N/O)ccn1 (stereo not given) | 
10 | 2.7 | 0.3 | 0.5 | 15 | Cc1cc(/C(C[C@H](c2ccc(-c3ccc(C(=O)O)cc3)cc2)c2ccccc2C)=N/O)ccn1 | Cp (Plasma): 31500 ng/mL; bioavailability [11]: 80%
